Values after ≈ are worked out from the molar mass of the structure shown. Structures can show the parent of a compound that is named as a salt. Where two headings read alike, the source gives them in different places.
How the values were obtained:
Type in all cases: physicochemical
[1] = Approximate solubility of the starting free base at room temperature; settings: room temperature (about 25 °C)
Procedure: The approximate solubility of the starting free base of the exemplary compound of formula (II) in 5 single solvents and 9 mixed solvents at room temperature (about 25 °C) was also tested. Table 1. Approximate solubility (mg/mL) of the starting free base at room temperature

[2] = Stability test, open conditions at 25 °C/60% RH and 40 °C/75% RH for 3 days; settings: for Change in appearance / Change in crystal form / Purity: 3 days
Procedure: Samples were separately taken from two crystal forms I and II of the monotriphenylacetate salt of the exemplary compound of formula (II) and left to stand in open conditions at 25 °C/60% RH and 40 °C/75% RH for 3 days.
Table 4. Summary of stability study data

[3] = Hygroscopicity test (dynamic vapor sorption, DVS)
From the text: The DVS results of the crystal form I (FIG. 12A) show slow weight gains from 0 to 60% RH and 70% RH to 95% RH, and a rapid weight gain from 60% RH to 70% RH.

[4] = Kinetic solubility in water and four biological media at 37 °C; settings: for S: Solubility / solubility at 1 h / solubility at 4 h / solubility at 24 h: about 10 mg/mL sample added; for S: Solubility: LOQ = 0.099 µg/mL; for solubility at 1 h / solubility at 4 h / solubility at 24 h: read-out: S: Solubility; for FC: change in appearance: solid by XRPD; for pH: supernatant
Procedure: About 10 mg/mL of sample (on a free base basis) was added to various biological media. After shaking at 100 rpm at 37 °C (for 1/4/24 h), samples 01-05 were centrifuged, and the solids were collected for XRPD test, while the supernatant was used for detection and pH measurement.
Table 9. Kinetic solubility of crystal form I in water and four biological media at 37 °C (mg/mL)

[5] = Acceleration stability test at 40 °C and 75% humidity, one month
Procedure: The commercially available amorphous form of rifabutin and the crystal forms V and VI of the present application were separately placed in a constant-temperature and constant-humidity incubator at 40 °C and 75% humidity for acceleration test. After one month, the change in purity was determined.

What does the source list for `CO[C@H]1/C=C/O[C@@]2(C)Oc3c(C)c(O)c4c(c3C2=O)C2=NC3(CCN(CCn5c([N+](=O)[O-])cnc5C)CC3)NC2=C(NC(=O)/C(C)=C\C=C\[C@H](C)[C@H](O)[C@@H](C)[C@@H](O)[C@@H](C)[C@H](OC(C)=O)[C@@H]1C)C4=O` [starting free base]?
solubility ([1]; 2-MeTHF): > 41400 µg/mL; solubility ([1]; 2-MeTHF:MTBE (1:1) v:v): > 42400 µg/mL; solubility ([1]; EtOAc): > 40800 µg/mL; solubility ([1]; EtOAc:MTBE (1:1) v:v): > 41400 µg/mL; solubility ([1]; IPA): > 39200 µg/mL; solubility ([1]; IPA:H2O (1:1) v:v): 20500 to 41000 µg/mL (≈ 21.7 to 43.4 mM); solubility ([1]; IPA:H2O (3:1) v:v): > 41200 µg/mL; solubility ([1]; IPA:H2O (5:1) v:v): > 41200 µg/mL; solubility ([1]; IPA:H2O (9:1) v:v): > 41400 µg/mL; solubility ([1]; IPA:H2O (19:1) v:v): > 42200 µg/mL; solubility ([1]; IPA:n-Heptane (1:1) v:v): 20700 to 41400 µg/mL (≈ 21.9 to 43.9 mM); solubility ([1]; MTBE): 6700 to 20100 µg/mL (≈ 7.1 to 21.3 mM); solubility ([1]; Toluene): > 41400 µg/mL; solubility ([1]; Toluene:MTBE (1:1) v:v): > 42400 µg/mL

Which Change in appearance ([2]; 25 °C/60% RH Open) does the source give for `CO[C@H]1/C=C/O[C@@]2(C)Oc3c(C)c(O)c4c(c3C2=O)C2=NC3(CCN(CCn5c([N+](=O)[O-])cnc5C)CC3)NC2=C(NC(=O)/C(C)=C\C=C\[C@H](C)[C@H](O)[C@@H](C)[C@@H](O)[C@@H](C)[C@H](OC(C)=O)[C@@H]1C)C4=O` [Crystal form I of triphenylacetate salt] here?
The Change in appearance was “No change”.

And the “Change in crystal form” value ([2]; 25 °C/60% RH Open)?
Its value is “No change”.

What about the Purity ([2]; 25 °C/60% RH Open) of the same compound?
Its Purity is 98.09 Area%.

And the Change in appearance ([2]; 40 °C/75% RH Open)?
The Change in appearance was “No change”.

And the “Change in crystal form” value ([2]; 40 °C/75% RH Open)?
The value was “No change”.

And the Purity ([2]; 40 °C/75% RH Open)?
The Purity was 98.22 Area%.

And the “Starting sample Purity” value ([2]; starting sample, before storage)?
Its value is 97.23 Area%.

What about the water absorption ([3]; 25 °C/80% RH (relative to 0% RH), about 1 H2O) of the same compound?
The water absorption was 1.5%.

And the hygroscopicity ([3]; DVS, 25 °C/80% RH)?
The hygroscopicity was “slightly hygroscopic”.

What about the “change in appearance of crystal form before/after DVS evaluation (XRPD)” value ([3]; before/after DVS) of the same compound?
The value was “no change”.

What about the “S: Solubility” value ([4]; Water, 1 h) of the same compound?
Its value is “<LOQ”.

And the “S: Solubility” value ([4]; Water, 4 h)?
The value was “<LOQ”.

What about the “S: Solubility” value ([4]; Water, 24 h) of the same compound?
Its value is “<LOQ”.

What about the solubility at 1 h ([4]; fassgf, pH 1.6, FaSSGF (1.6), 1 h) of the same compound?
Its solubility at 1 h is 1300 µg/mL.

What about the solubility at 4 h ([4]; fassgf, pH 1.6, FaSSGF (1.6), 4 h) of the same compound?
Its solubility at 4 h is 1600 µg/mL.

What about the solubility at 24 h ([4]; fassgf, pH 1.6, FaSSGF (1.6), 24 h) of the same compound?
The solubility at 24 h was about 1600 µg/mL.

And the solubility at 1 h ([4]; fassif, pH 6.5, FaSSIF (6.5), 1 h)?
The solubility at 1 h was 12 µg/mL.

And the solubility at 4 h ([4]; fassif, pH 6.5, FaSSIF (6.5), 4 h)?
Its solubility at 4 h is 5.7 µg/mL.

And the solubility at 24 h ([4]; fassif, pH 6.5, FaSSIF (6.5), 24 h)?
The solubility at 24 h was 7.5 µg/mL.

What about the solubility at 1 h ([4]; fessgf, pH 5, FeSSGF (5.0), 1 h) of the same compound?
The solubility at 1 h was 120 µg/mL.

And the solubility at 4 h ([4]; fessgf, pH 5, FeSSGF (5.0), 4 h)?
The solubility at 4 h was 180 µg/mL.

What about the solubility at 24 h ([4]; fessgf, pH 5, FeSSGF (5.0), 24 h) of the same compound?
Its solubility at 24 h is 220 µg/mL.

And the solubility at 1 h ([4]; fessif, pH 5, FeSSIF (5.0), 1 h)?
The solubility at 1 h was 120 µg/mL.

What about the solubility at 4 h ([4]; fessif, pH 5, FeSSIF (5.0), 4 h) of the same compound?
Its solubility at 4 h is 120 µg/mL.

What about the solubility at 24 h ([4]; fessif, pH 5, FeSSIF (5.0), 24 h) of the same compound?
The solubility at 24 h was 140 µg/mL.

And the “FC: change in appearance” value ([4]; FaSSGF (1.6), 1 h)?
Its value is “No”.

What about the “FC: change in appearance” value ([4]; FaSSGF (1.6), 4 h) of the same compound?
The value was “No”.

And the “FC: change in appearance” value ([4]; FaSSGF (1.6), 24 h)?
Its value is “No”.

What about the “FC: change in appearance” value ([4]; FaSSIF (6.5), 1 h) of the same compound?
The value was “No”.

What about the “FC: change in appearance” value ([4]; FaSSIF (6.5), 4 h) of the same compound?
The value was “No”.

And the “FC: change in appearance” value ([4]; FaSSIF (6.5), 24 h)?
The value was “No”.

What about the “FC: change in appearance” value ([4]; FeSSGF (5.0), 1 h) of the same compound?
The value was “No”.

What about the “FC: change in appearance” value ([4]; FeSSGF (5.0), 4 h) of the same compound?
Its value is “No”.

And the “FC: change in appearance” value ([4]; FeSSGF (5.0), 24 h)?
The value was “No”.

What about the “FC: change in appearance” value ([4]; FeSSIF (5.0), 1 h) of the same compound?
Its value is “No”.

What about the “FC: change in appearance” value ([4]; FeSSIF (5.0), 4 h) of the same compound?
Its value is “No”.

And the “FC: change in appearance” value ([4]; FeSSIF (5.0), 24 h)?
Its value is “No”.

And the “FC: change in appearance” value ([4]; Water, 1 h)?
The value was “No”.

What about the “FC: change in appearance” value ([4]; Water, 4 h) of the same compound?
The value was “No”.

What about the “FC: change in appearance” value ([4]; Water, 24 h) of the same compound?
The value was “No”.

And the pH ([4]; FaSSGF (1.6), 1 h)?
The pH was 1.55.

And the pH ([4]; FaSSGF (1.6), 4 h)?
The pH was 1.57.

What about the pH ([4]; FaSSGF (1.6), 24 h) of the same compound?
Its pH is 1.54.

And the pH ([4]; FaSSIF (6.5), 1 h)?
Its pH is 6.37.

And the pH ([4]; FaSSIF (6.5), 4 h)?
Its pH is 6.37.

What about the pH ([4]; FaSSIF (6.5), 24 h) of the same compound?
The pH was 6.40.

What about the pH ([4]; FeSSGF (5.0), 1 h) of the same compound?
Its pH is 5.03.

And the pH ([4]; FeSSGF (5.0), 4 h)?
Its pH is 5.07.

What about the pH ([4]; FeSSGF (5.0), 24 h) of the same compound?
Its pH is 5.07.

What about the pH ([4]; FeSSIF (5.0), 1 h) of the same compound?
The pH was 4.85.

And the pH ([4]; FeSSIF (5.0), 4 h)?
Its pH is 4.84.

And the pH ([4]; FeSSIF (5.0), 24 h)?
Its pH is 4.84.

What about the pH ([4]; Water, 1 h) of the same compound?
The pH was 4.45.

What about the pH ([4]; Water, 4 h) of the same compound?
The pH was 4.44.

And the pH ([4]; Water, 24 h)?
The pH was 4.62.

With `CO[C@H]1/C=C/O[C@@]2(C)Oc3c(C)c(O)c4c(c3C2=O)C2=NC3(CCN(CC(C)C)CC3)NC2=C(NC(=O)/C(C)=C\C=C\[C@H](C)[C@H](O)[C@@H](C)[C@@H](O)[C@@H](C)[C@H](OC(C)=O)[C@@H]1C)C4=O` [amorphous product of rifabutin, rifabutin] as the compound, how does the Purity ([5]; after one month at 40 °C and 75% humidity) read?
Its Purity is 95.54%.

And the “purity of the original sample” value ([5]; original sample, before storage)?
The value was 95.9%.
